{"source": "patent US20190382346A1", "about": "“(NITRO-PHENYL)-NITROPYRIDINE COMPOUNDS FOR TREATING SYNUCLEINOPATHIES” (UNIVERSITAT AUTONOMA DE BARCELONA, priority 2017, published 2019)", "key": {"[1]": {"molecular_target": "T1, human H50Q mutant α-synuclein (Homo sapiens, UniProt P37840, H50Q)", "T1 construct": "made in house; host or cells: E. coli BL21 (DE3)", "assay": "thioflavin-T aggregation assay, H50Q mutant", "type": "biochemical", "conditions": "100 μM compound, 70 μM α-synuclein, 24 h", "protocol": "(§1) Previously lyophilized α-synuclein was carefully dissolved in PBS buffer to a final concentration of 210 μM and filtered through a Millipore s 0.22-μm filter. α-synuclein aggregation assay was performed in a 96 wells plate (non-treated, black plastic) containing in each well a Teflon polyball (3.175 mm in diameter), 40 μM thioflavin-T, 70 μM α-synuclein, 100 μM of the tested compound and PBS up to a final volume of 150 μL. Plates were fixed into an orbital culture shaker Max-Q 4000 Thermo Scientific to keep the incubation at 37° C., 100 rpm. Every 2 hours, the fluorescence intensity was measured using a Victor3.0 Multilabel Reader by exciting the mixtures with 430-450 filter and collecting the emission intensity with 480-510 filter (triplicates for each measurement). Each plate contained 3 α-synuclein controls in the absence of any compound. The averaged Th-T fluorescence obtained for these wells at the end of the experiment was normalized to 1 and the kinetic curves in the different wells re-scaled accordingly. Re-scaled curves were used to compare the controls with the effect of the tested compound and to ensure that the controls were reproducible between different experiments. […] After 2 weeks, scattering of the samples was analyzed at 300 nm and 340 nm using a Varian fluorimeter. […] Every 2 hours, the thioflavin-T fluorescence intensity was measured as described above."}, "[2]": {"molecular_target": "T2, human wild-type α-synuclein (Homo sapiens, UniProt P37840)", "T2 construct": "made in house; host or cells: E. coli BL21 (DE3)", "assay": "α-synuclein aggregation and thioflavin-T assay", "type": "biochemical", "protocol": "Previously lyophilized α-synuclein was carefully dissolved in PBS buffer to a final concentration of 210 μM and filtered through a Millipore s 0.22-μm filter. α-synuclein aggregation assay was performed in a 96 wells plate (non-treated, black plastic) containing in each well a Teflon polyball (3.175 mm in diameter), 40 μM thioflavin-T, 70 μM α-synuclein, 100 μM of the tested compound and PBS up to a final volume of 150 μL. Plates were fixed into an orbital culture shaker Max-Q 4000 Thermo Scientific to keep the incubation at 37° C., 100 rpm. Every 2 hours, the fluorescence intensity was measured using a Victor3.0 Multilabel Reader by exciting the mixtures with 430-450 filter and collecting the emission intensity with 480-510 filter (triplicates for each measurement). Each plate contained 3 α-synuclein controls in the absence of any compound. The averaged Th-T fluorescence obtained for these wells at the end of the experiment was normalized to 1 and the kinetic curves in the different wells re-scaled accordingly. Re-scaled curves were used to compare the controls with the effect of the tested compound and to ensure that the controls were reproducible between different experiments. For the titration assay, different concentrations of tested compound (200, 150, 100, 75 and 25 μM) were used. For the scattering assay, 70 μM α-synuclein, 100 μM of the tested compound or DMSO (in control samples) and PBS up to a final volume of 1 mL were incubated in low-binding plastic tubes (Protein LoBind Tube 1.5 mL, Eppendorf) using a thermomixer (Thermomixer comfort, Eppendorf) at 37° C. and 600 rpm. After 2 weeks, scattering of the samples was analyzed at 300 nm and 340 nm using a Varian fluorimeter.\nEach sample was tested in triplicate. Each plate contained an also triplicated control without tested compound.\nIn the aggregation assay described above, α-synuclein aggregates within approximately 24 h with a sigmoidal aggregation curve."}, "in vitro": {"assay": "in vitro", "type": "cell-based", "conditions": "human", "protocol": "Cultured cells of human neuroblastoma cell line SH-SY5Y were incubated for 72 h with either the vehicle (DMSO) or with different concentrations of the compound. Then, the cells were incubated with a cell viability indicator (PrestoBlue® Cell Viability Reagent). The modification of PrestoBlue® Cell Viability Reagent by the reducing environment of viable cells turns the dye red in color becoming highly fluorescent. This color change can be detected measuring fluorescence by exciting at 531 nm and detecting emission at 615 nm. The CC50 of compound D (concentration that caused death in 50% of the cells, i.e. reduction to 50% viability) was >700 μM (FIG. 6)."}, "α-synuclein fibrils": {"molecular_target": "T3, α-synuclein fibrils (Homo sapiens, UniProt P37840)", "T3 construct": "made in house; host or cells: E. coli BL21 (DE3)", "assay": "Transmission Electron Microscopy of α-synuclein fibrils at end of aggregation reaction", "type": "biochemical", "conditions": "end of the aggregation reaction", "protocol": "α-synuclein fibers from final point reaction (either in absence or presence of the final concentration inhibitors) were collected in Eppendorfs. After diluting the aggregated α-synuclein to a concentration of 10 μM α-synuclein, each sample was sonicated for 10 minutes. 5 μL of these samples were placed on carbon-coated copper grids and allowed to stand for 5 minutes. Then, samples were carefully dried with filter paper to remove the excess of sample. Grids were washed twice with MiliQ water by immersion and stained by incubating grids with 5 μL 2% (w/v) uranyl acetate for 2 minutes for the negative staining. After removal of the uranyl acetate excess with filter paper, grids were let to air-dry for 10 minutes. The samples were imaged using a Jeol 1400 Transmission Electron Microscopy operating at an accelerating voltage of 120 kV. 30 fields were screened at least, to obtain representative images."}, "[3]": {"test_system": "human wild-type α-synuclein fused to yellow fluorescent protein (YFP)", "assay": "C. elegans α-synuclein aggregation model", "type": "in vivo", "conditions": "10 μM compound, 5 days from L4 stage, strain NL5901", "protocol": "α-synuclein aggregation was assessed using an C. elegans in vivo model described by (Van Ham et al., 2008) and (Muñoz-Lobato et al., 2014).\nThe nematode strain NL5901, unc-119(ed3) III; [pkls2386 (Punc-54::α-syn::yfp; unc-119(+))] was obtained from the Caenorhabditis elegans Genetic Center (CGC), University of Minnesota, USA. The strain expresses a fusion of human wildtype α-synuclein and yellow fluorescent protein (YFP) in body wall muscle cells. The nematodes were maintained using standard procedures, grown in NGM agar plates and fed with E coli (OP50 strain). Adult worms were bleached to get synchronized nematode cultures. NGM-agar plates with a) DMSO only (vehicle) and b) 10 μM final concentration of the tested compound were prepared. Afterwards, OP50 containing a) or b) was added to NGM plates and let dry for 24 h. […] After 5 days of development (L4+5) the numbers of α-synuclein aggregates were determined using a fluorescence microscope. […] The same section in each animal was analyzed and captured in stacks to include aggregates contained from the top to the bottom of each animal ([…], 25 stacks). Image analysis was performed using ImageJ software, from the Z MAX acquisition, quantifying the number of α-synuclein-YFP aggregates. Final quantification and statistics was performed by the Graph Pad Prism 6.0 software, comparing vehicle-treated worms with drug-treated animals. […]"}, "[4]": {"molecular_target": "T4, human A30P mutant α-synuclein (Homo sapiens, UniProt P37840, A30P)", "T4 construct": "made in house; host or cells: E. coli BL21 (DE3)", "assay": "thioflavin-T aggregation assay, A30P mutant", "type": "biochemical", "conditions": "100 μM compound, 70 μM α-synuclein, 24 h", "protocol": "as §1"}, "[5]": {"molecular_target": "T2, human wild-type α-synuclein", "assay": "α-synuclein aggregation scattering assay", "type": "biochemical", "conditions": "100 μM compound, 70 μM α-synuclein, 2 weeks, 37° C., 600 rpm", "protocol": "Previously lyophilized α-synuclein was carefully dissolved in PBS buffer to a final concentration of 210 μM and filtered through a Millipore s 0.22-μm filter. α-synuclein aggregation assay was performed in a 96 wells plate (non-treated, black plastic) containing in each well a Teflon polyball (3.175 mm in diameter), 40 μM thioflavin-T, 70 μM α-synuclein, 100 μM of the tested compound and PBS up to a final volume of 150 μL. Plates were fixed into an orbital culture shaker Max-Q 4000 Thermo Scientific to keep the incubation at 37° C., 100 rpm. Every 2 hours, the fluorescence intensity was measured using a Victor3.0 Multilabel Reader by exciting the mixtures with 430-450 filter and collecting the emission intensity with 480-510 filter (triplicates for each measurement). Each plate contained 3 α-synuclein controls in the absence of any compound. The averaged Th-T fluorescence obtained for these wells at the end of the experiment was normalized to 1 and the kinetic curves in the different wells re-scaled accordingly. Re-scaled curves were used to compare the controls with the effect of the tested compound and to ensure that the controls were reproducible between different experiments. […] After 2 weeks, scattering of the samples was analyzed at 300 nm and 340 nm using a Varian fluorimeter. […]"}, "[6]": {"conditions": "70 μM α-synuclein, 100 μM compound, 37° C."}}, "data": [{"smiles": "N#Cc1c(O)nc(-c2cccc([N+](=O)[O-])c2)c([N+](=O)[O-])c1C(F)(F)F", "note": "[compound D, 2-hydroxy-5-nitro-6-(3-nitrophenyl)-4-(trifluoromethyl)nicotinonitrile]", "values": [{"measurement": "inhibition of human H50Q mutant α-synuclein aggregation (thioflavin-T fluorescence)", "setting": "[1]", "value": "inhibits"}, {"measurement": "delay of halftime of aggregation relative to the control", "setting": "[2]; [6]", "value": 3, "unit": "h"}, {"measurement": "inhibition of α-synuclein aggregation at the end of the aggregation reaction relative to the control (thioflavin-T fluorescence)", "setting": "[2]; [6]", "value": 32.4, "unit": "%"}, {"measurement": "anti-aggregation activity in titration assays", "setting": "[2]; 200, 150, 100, 75 and 25 μM compound, 70 μM α-synuclein", "value": "clear dose-dependent anti-aggregation activity"}, {"measurement": "k1 (nucleation rate constant), Finke-Watzky two-step model", "setting": "[2]; fitted aggregation curves", "value": "decreased"}, {"measurement": "k2 (growth rate constant), Finke-Watzky two-step model", "setting": "[2]; fitted aggregation curves", "value": "decreased"}, {"measurement": "activity at sub-stoichiometric protein:compound ratios", "setting": "[2]; titration assay, 70 μM α-synuclein", "value": "showed activity"}, {"measurement": "CC50 at 72 h", "setting": "in vitro", "value": "> 700", "unit": "µM"}, {"measurement": "number and size of α-synuclein fibrils compared to control (TEM)", "setting": "α-synuclein fibrils", "value": "significant decrease in both number and size of α-synuclein fibrils"}, {"measurement": "α-synuclein-YFP protein inclusions in muscle cells of the worms", "setting": "[3]", "value": "significantly decreased"}, {"measurement": "inhibition of human A30P mutant α-synuclein aggregation (thioflavin-T fluorescence)", "setting": "[4]", "value": "inhibits"}, {"measurement": "inhibition of human wild-type α-synuclein aggregation (scattering at 300 nm and 340 nm)", "setting": "[5]", "value": "inhibits"}]}]}
